Reference: patent US5527900A, “N3-alkyl-2',5'-0-silylated-3'-spiro-thymidine derivatives” (Stitching Rega VZW, priority 1991, dated 1996)
In brackets after ≈: the same amount, converted by molar mass. Where two headings read alike, the source gives them in different places.

Assays:
[1] = Cytotoxicity for mock-infected MT-4 cells; conditions: human, mt-4 cells
Description: (§1) In order to evaluate the inhibitory effects against retrovirus-induced cytopathogenicity in MT-4cells, said cells (5×10^5 cells/ml) were suspended in fresh culture medium and infected with HIV-1, HIV-2 or SIOV at 100 times the cell culture infective dose-50 (CCID50) per ml cell suspension (1 CCID50 being the dose infective for 50% of the cell cultures). Then, 100 μl of the infected cell suspension were transferred to microplate wells, mixed with 100 μl of the appropriate dilutions of the test compounds, and further incubated at 37° C. After 5 days, the number of viable cells was determined in a blood cell-counting chamber by trypan blue staining for both virus-infected and mock-infected cell cultures.

[2] = test system: MT-4 cells; experiment: Cytotoxicity for mock-infected MT-4 cells; conditions: at 100 μg/ml
Description: as §1

[3] = test system: HIV-2 strain (EHO); experiment: Activity against HIV-2 strain EHO; assay type: cell-based
[4] = test system: MT-4 cell DNA synthesis; experiment: Incorporation of radiolabeled precursors into MT-4 cell DNA; assay type: cell-based; conditions: Homo sapiens
Description: (§2) The radiolabeled nucleosides [methyl-^3 H]dThd (specific radioactivity: 40 Ci/mmol), [5-^3 H]dUrd (specific radioactivity: 27 Ci/mmol), [5-^3 H]dCyc (specific radioactivity: 18.2 Ci/mmol) and the radiolabeled amino acid L-[4,5-^3 H]leucine (specific radioactivity: 52 Ci/mmol were derived from the Radiochemcial Centre (Amersham, England); [5-^3 H]Urd (specific radioactivity: 21 Ci/mmol) and [5-^3 H]Cyd (specific radioactivity: 21 Ci/mmol) and were obtained from Moravek Biochemicals Inc. (Brea, Calif.)
(§3) The incorporation of [methyl-^3 H]dThd, [5-^3 H]dUrd, [5-^3 H]dCyd, [5-^3 H]Urd, [5-^3 H]Cyd and L-[4,5-^3 H]1eu into TCA-insoluble MT-4 cell material was measured in wells of a 96-well microtiter plate (Falcon-3072, Becton-Dickinson, New Jersey). To each well were added 10^5 MT-4 cells, 0.25 μCi of the radiolabeled precursor and a given amount of test compound. The cells were allowed to proliferate for 20 to 24 hr at 37° C. in a humidified, CO2 -controlled atmosphere. At the end of this incubation period, the contents of the wells (200 μl) were brought onto 25-mm glass fiber filters (type A/E, Gelman Instrument Company, Ann Arbor, Mich.), and mounted on a Millipore 3025 sampling manifold apparatus. The filters were washed twice with 2 ml and 5 ml cold NaCl/Pi (phosphte-buffered saline), twice with 2 and 5 ml cold 10% trichloroacetic acid (TCA), twice with 5 and 7.5 ml cold 5% TCA, and twice with 1 ml cold ethanol.

[5] = test system: MT-4 cell DNA, RNA or protein synthesis; experiment: Incorporation of radiolabeled DNA, RNA or protein precursors into TCA-insoluble MT-4 cell material (summary in words); assay type: cell-based; conditions: at 100 μg/ml
Description: as §2, §3

[6] = test system: HIV-1 (HTLV-IIIB); experiment: Anti-retrovirus activity: inhibition of HIV-1-induced cytopathogenicity in MT-4 cells; assay type: cell-based; conditions: for EC50: Human immunodeficiency virus 1, IIIB; for S.I. (Selectivity Index): Table 1, CC50/EC50, MT-4 cells
Description: The viruses used were moloney murine sarcoma virus (MSV), HIV-1 (strain HTLV-IIIB, kindly provided by R. C. Gallo and M. Popovic, National Cancer Institute, Bethesda, Md.), HIV-2 (strain LAV-2(ROD)), kindly provided by L. Montagnier (Pasteur Institute, Paris, France), simian immunodeficiency virus (SIV) (strain SIVMAC251, kindly provided by C. Bruck, RIT-Smith-Kline, Rixensart, Belgium).
as §1

[7] = test system: MT-4 cell protein synthesis; experiment: Incorporation of radiolabeled leucine into MT-4 cell protein; assay type: cell-based; conditions: Homo sapiens
Description: as §2, §3

[8] = test system: MT-4 cell RNA synthesis; experiment: Incorporation of radiolabeled precursors into MT-4 cell RNA; assay type: cell-based; conditions: Homo sapiens
Description: as §2, §3

[9] = test system: MT-4 cells; experiment: Cytotoxicity for MT-4 cells depending on exposure time; assay type: cell-based
Description: The toxicity of test compounds upon a 2-hr incubation period was determined by exposing MT-4 cells (3.5×10^5 cells/ml) to 100, 20, 4, 0.8 or 0.16 μg/ml of the test compounds for 2 hours at 37° C. Subsequently the cells were washed with culture medium. The pretreated cells were seeded in microplate wells at 70×10^3 cells/200 μl-well and allowed to grow for 3 days at 37° C. Control cultures received similar concentrations of the test compounds during the whole incubation period. Then, cells were counted in a Coulter counter (Harpenden Hertz, England) and the CC50 values were determined for each compound.
Mt-4 cells were suspended in culture medium, infected with HIV-1 and brought into microplate wells as described above.

[10] = AIDS patients; cited from earlier work
[11] = Partition coefficient (Pa) between 1-octanol and 10 mM potassium phosphate buffer; assay type: physicochemical; conditions: 1-octanol / 10 mM potassium phosphate buffer, pH 7.5, 50 μM
Description: Partition of the test compounds between 1-octanol (Merck, Darmstadt, Germany) and 10 mM potassium phosphate buffer, pH, 7.5 (Merck), was measured as described in Balzarini et al., Biochem, Biophys. Res. Commun. 158: 413-422 (1989). Briefly, a 50 μM concentration of the test compound in potassium phosphate buffer was thoroughly mixed with an equal volume of 1-octanol for 30 min at room temperature. Then, the mixture was further equilibrated at room temperature and UV absorption was measured for the aqueous and alcoholic liquid phases. The partition coefficient (Pa) was calculated as the ratio of the compound concentration present in the 1-octanol phase to the compound concentration present in the aqueous phase.

[12] = test system: HIV-1; experiment: Antiviral activity upon delayed addition to HIV-1-infected MT-4 cells; assay type: cell-based; conditions: for antiviral activity on delayed addition: addition delayed by 41 to 48 hours; for decrease of antiviral activity on delayed addition: addition delayed by 17-24 hours, data not shown
Description: as §1
Mt-4 cells were suspended in culture medium, infected with HIV-1 and brought into microplate wells as described above. […] After 5 days, the number of viable cells was determined and the EC50 and CC50 values for the test compounds were defined as described in example 1.

[13] = test system: HIV-1 mutant strains; experiment: Resistance of HIV-1 strains selected against compounds 5, 6 and 7; assay type: cell-based
[14] = biological target: reverse transcriptase enzyme of the TSAO-resistant HIV-1 strains (HIV-1 M:B_HXB2R, UniProt P04585, E725K); assay type: binding; conditions: Glu-138 to Lys
[15] = MT4, MT-4 cells, 20 to 24 hr, read-out: IC50, [5-3H]dCyd incorporation
[16] = MT4, MT-4 cells, 20 to 24 hr, read-out: IC50, [5-3H]dUrd incorporation
[17] = MT4, MT-4 cells, 20 to 24 hr, read-out: IC50, [methyl-3H]dThd incorporation
[18] = MT4, MT-4 cells, 20 to 24 hr, read-out: IC50, L-[4,5-3H]leucine incorporation
[19] = MT4, MT-4 cells, 20 to 24 hr, read-out: IC50, [5-3H]Cyd incorporation
[20] = MT4, MT-4 cells, 20 to 24 hr, read-out: IC50, [5-3H]Urd incorporation
[21] = MT4, read-out: 50% effective concentration (EC50)

SMILES | CC50 at 120 h [1] [µg/mL] | cytotoxicity to MT-4 cells (in words) [2] | IC50 [4, 15] [µg/mL] | IC50 [4, 16] [µg/mL] | IC50 [4, 17] [µg/mL] | inhibition of incorporation of dThd, dUrd, dCyd, Urd, Cyd or leucine [5] | EC50 ([6]; MT4, 120 h) [µg/mL] | S.I. (Selectivity Index) [6] | IC50 [7, 18] [µg/mL] | IC50 [8, 19] [µg/mL] | IC50 [8, 20] [µg/mL] | antiviral activity on delayed addition [12] | presence in the n-octanol phase compared to the aqueous phase [11] | logD at 50 µM ([11]; room temperature) | amino acid change in reverse transcriptase of HIV-1 strains selected for resistance [13] | other results
CC(C)=CCn1c(=O)c(C)cn([C@@H]2O[C@H](CO[Si](C)(C)C(C)(C)C)[C@@]3(OS(=O)(=O)C=C3N)[C@H]2O[Si](C)(C)C(C)(C)C)c1=O [Compound 9, {1-[2', 5'-Bis-O-(tert-butyldimethylsilyl)-β-D-ribofuranosyl]-3-N-(3-methyl-2-butenyl)-thymine}-3'spiro-5"-{4"-amino-1", 2"-oxathiole-2", 2"-dioxide}] | 73 (≈ 111 µM) | not cytotoxic | > 100 | > 100 | > 100 | did not markedly inhibit | 0.239 (≈ 0.363 µM) | 252 | > 100 | > 100 | > 100 |  |  |  |  | activity against HIV-2 strain (EHO) [3]: inactive
Cc1cn([C@H]2C[C@H](N=[N+]=[N-])[C@@H](CO)O2)c(=O)[nH]c1=O [AZT, 3'-Azido-3'-deoxythymidine, reference compound] |  |  |  |  |  |  |  |  |  |  |  | almost totally lost |  |  |  | cytostatic activity depending on exposure time ([9]; data not shown): less cytostatic the shorter its exposure time to MT-4 cells; toxic side effects on long-term treatment [10]: bone marrow suppression; partition coefficient (Pa) ([11]; room temperature): 1.12
CCn1c(=O)c(C)cn([C@@H]2O[C@H](CO[Si](C)(C)C(C)(C)C)[C@@]3(OS(=O)(=O)C=C3N)[C@H]2O[Si](C)(C)C(C)(C)C)c1=O [Compound 7, {1-[2', 5'-Bis-O-(tert-butyldimethylsily)-62 -D-ribofuranosyl]-3-N-ethyl-thymine}-3'-spiro-5"-{4"-amino-1", 2"-oxathiole-2",2"-dioxide}] | 73 (≈ 118 µM) |  |  |  |  |  | 0.073 (≈ 0.118 µM) | 1000 |  |  |  |  | more than 95% | > 1.3 | glutamic acid change at position 138 to lysine | Selectivity Index [6]: 1000; EC50 [6, 21]: 0.073 µg/mL (≈ 0.118 µM)
Cc1cn([C@@H]2O[C@H](CO[Si](C)(C)C(C)(C)C)[C@@]3(OS(=O)(=O)C=C3N)[C@H]2O[Si](C)(C)C(C)(C)C)c(=O)n(C)c1=O [Compound 6] | 139 (≈ 230 µM) | not cytotoxic | > 100 | > 100 | > 100 | did not markedly inhibit | 0.034 (≈ 0.0563 µM) | 4088 | > 100 | > 100 | > 100 | almost totally lost | more than 95% | > 1.3 | glutamic acid change at position 138 to lysine | decrease of antiviral activity on delayed addition [12]: 10 fold; Selectivity Index [6]: 4088; EC50 [6, 21]: 0.034 µg/mL (≈ 0.0563 µM)
Cc1ccnc2c1NC(=O)c1cccnc1N2C1CC1 [Nevirapine, reference compound] |  |  |  |  |  |  |  |  |  |  |  |  |  |  |  | affinity of mutated reverse transcriptase [14]: not for other HIV-1-specific compounds
Cc1cn([C@@H]2O[C@H](CO[Si](C)(C)C(C)(C)C)[C@@]3(OS(=O)(=O)C=C3N)[C@H]2O[Si](C)(C)C(C)(C)C)c(=O)[nH]c1=O [Compound 5, {1-[2', 5'-Bis-O-(tert-butyldimethylsilyl)-β-D-ribofuranosyl]thymine}-3'-spiro-5"-{4"-amino-1",2"-oxathiole-2", 2"-dioxide}] | 7.7 (≈ 13.1 µM) | not cytotoxic |  |  |  |  |  |  |  |  |  | almost totally lost | more than 95% | > 1.3 | glutamic acid change at position 138 to lysine | toxicity for MT-4 cells depending on contact time ([9]; time of contact with the cells varied): not affected by the time that the compound had remained in contact with the cells; IC50 ([4]; MT4, read-out: IC50, [5-3H]dCyd incorporation): 115 µg/mL (≈ 195 µM); IC50 ([4]; MT4, read-out: IC50, [5-3H]dUrd incorporation): 9.1 µg/mL (≈ 15.4 µM); IC50 ([4]; MT4, read-out: IC50, [methyl-3H]dThd incorporation): 13 µg/mL (≈ 22 µM); decrease of antiviral activity on delayed addition [12]: 10 fold; IC50 ([7]; MT4, read-out: IC50, L-[4,5-3H]leucine incorporation): 11.6 µg/mL (≈ 19.7 µM); IC50 ([8]; MT4, read-out: IC50, [5-3H]Cyd incorporation): 8 µg/mL (≈ 13.6 µM); IC50 ([8]; MT4, read-out: IC50, [5-3H]Urd incorporation): 11 µg/mL (≈ 18.6 µM)
CC(C)(C)[Si](C)(C)OC[C@H]1O[C@@H](n2ccc(N)nc2=O)[C@H](O[Si](C)(C)C(C)(C)C)[C@]12OS(=O)(=O)C=C2N [Compound 14, {1-[2', 5'-Bis-O-(tert-butyldimethylsilyl)-β-D-ribofuranosyl]-cytosine}-3'-spiro-5"-{4"-amino-1",2"-oxathiole-2",2"-dioxide}] | ≥ 200 | not cytotoxic | > 100 | > 100 | > 100 | did not markedly inhibit | 0.439 (≈ 0.764 µM) | ≥ 456 | > 100 | > 100 | > 100 |  | more than 95% | > 1.3 |  | activity against HIV-2 strain (EHO) [3]: inactive
